Measurements published in patent publication US7341726B2, “Modified HCV peptide immunogens” (The United States of America as represented by the …, priority 1998, dated 2008).
Entries after “also recorded” stand apart in the source; their conditions may differ.

How the values were obtained:
[1] = molecular target: T1, HLA-A2.1 (Homo sapiens, UniProt P04439, D140Y/D185E/D98H/E176V/E277Q/G131W/G231S/I119V/I121R/I166T/I218V/L300P/L318F/N151K/N90K/P208A/P217A/Q86G/Q94H/R138H/R169H/T345S); assay: T2 binding assay: peptide stabilisation of cell-surface HLA-A2.1 (flow cytometry, BB7.2); settings: T2 cells; for FI0.5, the peptide concentration that increases HLA-A2.1 expression by 50% over no peptide control: overnight, with β2-microglobulin
T1 construct: The T2 cell line is deficient in TAP1 and TAP2 transporter proteins and expresses low levels of HLA-A2.1; endogenous in cells; host or cells: T2 cell line (TAP1/TAP2-deficient)
Method: FIGS. 1A and 1B. Binding of C7A2 Alanine (A) and non-Alanine (B)-substituted peptides to TAP-deficient HLA-A2.1. T2 cells were incubated overnight in a 96 well plate in CTM with 10 Φg/ml human β2-microglobulin and different peptide concentrations. The next day, cells were washed and HLA-A2.1 expression was assessed by flow cytometry using the anti HLA-A2 BB7.2 monoclonal antibody and FITC labeled goat anti mouse Ig. Results are expressed as fluorescence index (FI), calculated according to the formula: (mean fluorescence with peptide−mean fluorescence without peptide)/mean fluorescence without peptide. Background fluorescence without BB7.2 was subtracted for each individual value. FI0.5 represents those peptide concentrations that increase HLA-A2.1 expression by 50% over the no peptide control and were calculated from the titration curves for each particular peptide.
Peptide binding to HLA molecules was measured using the T2 mutant cell line according to a protocol previously described (53). T2 cells (3×10/well) were incubated overnight in 96-well plates with culture medium (1:1 mixture of RPMI 1640: EHAA containing 2.5% FBS, 100 U/ml penicillin, 100 Φg/ml streptomycin) with 10 Φg/ml β2-microglobulin (Sigma Chemical Co; St. Louis, Mo.) and different peptide concentrations. The next day, cells were washed twice with cold PBS containing 2% FBS and incubated for 30 min at 4 EC with anti HLA-A2.1 BB7.2 monoclonal antibody (1/80 dilution from hybridoma supernatant) and 5 Φg/ml FITC-labeled goat anti mouse Ig (Pharmingen; San Diego, Calif.). Cells were washed twice after each incubation and HLA-A2.1 expression was measured by flow cytometry on a FACScan (Becton Dickinson). HLA-A2.1 expression was quantified as fluorescence index (FI) according to the formula: FI=(mean fluorescence with peptide—mean fluorescence without peptide)/mean fluorescence without peptide. Background fluorescence without BB7.2 antibody was subtracted for each individual value. In order to compare the different peptides, FI0.5, the peptide concentration that increases HLA-A2.1 expression by 50% over no peptide control background, was calculated from the titration curve for each peptide.
The binding affinity of wild-type C7A2 peptide (C7A2-WT) was evaluated with a T2 binding assay (53), which measures the cell surface stabilization of HLA-A2.1 molecules after incubation with peptide. In order to compare the different peptides, a fluorescence index value of 0.5 (FI0.5), the peptide concentration that increases HLA-A2.1 expression by 50%, was chosen as a way to compare titrations of the peptides and relative affinity for MHC molecules. Using this method, FI0.5 of 10 ΦM was calculated for C7A2-WT.

[2] = tested on: human CTL line ViT2; assay: Recognition of C7A2-variant peptides by human CTL line ViT2 (51Cr release, C1R.A2.1 targets); type: cell-based; settings: for Recognition by human CTL line (lysis of peptide-sensitized target cells): E/T 5/1, peptide titration
[3] = tested on: transgenic AAD mouse CTL lines AAD.10 and AAD.1; assay: Recognition of C7A2-variant peptides by AAD transgenic mouse CTL lines (51Cr release, C1R.AAD targets); type: cell-based; settings: lines AAD.10 and AAD.1, C1R.AAD targets, E/T 10/1
[4] = tested on: AAD transgenic mice; assay: In vivo immunogenicity of C7A2-derived peptides in AAD transgenic mice (CTL assay); parameters: species or system mouse; settings: 50 nmol CTL epitope plus helper epitope, GM-CSF, IL-12 in IFA; targets pulsed with immunizing peptide
[5] = tested on: AAD transgenic mice; assay: Induction of CTL immune response against C7A2-WT in AAD transgenic mice; type: in vivo, mouse; settings: 50 or 15 nmol CTL epitope; for CTL response to C7A2-WT after immunization: targets pulsed with C7A2-WT
From the text: FIGS. 5A and 5B. […] Two weeks later, mice were boosted under the same conditions and 10-14 days after the boost, spleen cells were removed and stimulated in vitro with 10 ΦM CTL peptide-pulsed spleen cells.

[6] = tested on: A2Kb transgenic mice; assay: Induction of CTL immune response against C7A2-WT in A2Kb transgenic mice; type: in vivo, mouse; settings: 50 nmol, E/T 120:1 for C7A2-WT, 70:1 for 8A
From the text: FIG. 6. […] Two weeks later, mice were boosted under the same conditions and 10-14 days after the boost, spleen cells were removed and stimulated in vitro with 10 ΦM CTL peptide-pulsed spleen cells.

[7] = tested on: short term CTL lines from AAD transgenic mice; settings: C1R.AAD targets titrated with C7A2-WT, E:T 10:1
From the text: FIG. 7. […] Two weeks later, mice were boosted under the same conditions and 10-14 days after the boost, spleen cells were removed and stimulated in vitro with 10 ΦM CTL peptide-pulsed spleen cells.

[8] = tested on: A2Kb transgenic mice; settings: 50 nmol, targets with 10 ΦM peptide
Method: (§1) FIGS. 8A and 8B. […] AAD (A) and A2Kb (B) transgenic mice were immunized with 50 nmol CTL epitope 8A plus 50 nmol HBVc 128-140 helper epitope in IFA. Two weeks later, mice were boosted under the same conditions and 10-14 days after the boost, spleen cells were removed and stimulated in vitro with 10 ΦM CTL peptide-pulsed spleen cells. After two weeks of in vitro stimulation, a CTL assay was performed with target cells (Con A blasts) incubated with the different peptides at 10 ΦM.
(§2) This peptide is common in viral isolates from HCV genotypes 2a and 2b (56,57).

[9] = tested on: AAD transgenic mice; settings: 50 nmol, targets with 10 ΦM peptide
Method: as §1, §2

| Substance | FI0.5, the peptide concentration that increases HLA-A2.1 expression by 50% over no peptide control [1] | Recognition by human CTL line (lysis of peptide-sensitized target cells) [2] | Recognition by AAD mouse CTL lines (sensitization of target cells) [3] | Binding to HLA-A2.1 (in words, compared with C7A2-WT) [1] | Titration concentration relative to C7A2-WT ([2]; human CTL line) [fold lower concentrations] | Induction of CTL response by immunization [4] | CTL response to 8A after immunization ([5]; targets pulsed with 8A) | CTL response to C7A2-WT after immunization [5] | CTL immune response after immunization [6] | C7A2-WT concentration for comparable killing, CTL raised against 8A versus CTL raised against C7A2-WT [7] | Cross-recognition of peptide 8V by CTL induced by immunization [8] | Cross-recognition of peptide 8V by CTL induced by immunization [9] |
| --- | --- | --- | --- | --- | --- | --- | --- | --- | --- | --- | --- | --- |
| 8V: C7A2 peptide with position 8 L replaced by V; sequence common in HCV genotypes 2a and 2b (DLMGYIPVV) [Peptide 8V, reference compound] | 15 ΦM | behaved similarly to C7A2-WT | recognized at higher concentrations than determined for C7A2-WT |  |  |  |  |  |  |  |  |  |
| DLMGYIPAV [Peptide 8A] | around 2 ΦM | higher levels of lysis than C7A2-WT | able to sensitize target cells in a concentration range around that of C7A2-WT | higher affinity; also recorded: bind at lower concentrations than C7A2-WT | 10 | able to induce clear CTL responses; also recorded: induced higher levels of lysis | positive responses to 8A itself | strong responses to C7A2-WT | higher level of response | more than 100 fold lower | recognize peptide 8V | recognize peptide 8V |
| DLMGYIPLV [Peptide C7A2-WT, naturally occurring peptide at positions 132-140 in the HCV core polypeptide, reference compound] | 10 ΦM |  |  |  |  | able to induce clear CTL responses |  | two of the four animals | low response |  |  |  |
